± gives the expanded uncertainty stated by the source.
Assay: xn = mol fraction of the nth substance listed
Conditions: 96.7 kPa, Liquid; for viscosity: Capillary tube (Ostwald / Ubbelohde) method; for mass density: Vibrating tube method

## CCCCCCn1cc[n+](C)c1.[Cl-] [1-hexyl-3-methylimidazolium chloride] + C[S+](C)[O-]
303.15 K, x1 = 0.141
  viscosity: 6.523 ± 1 mPa·s
  mass density: 1078.5 ± 2.2 kg/m3
303.15 K, x1 = 0.278
  viscosity: 23.07 ± 3.6 mPa·s
  mass density: 1068.64 ± 2.2 kg/m3
303.15 K, x1 = 0.366
  viscosity: 54.37 ± 8.5 mPa·s
  mass density: 1063.06 ± 2.2 kg/m3
303.15 K, x1 = 0.472
  viscosity: 134.28 ± 21 mPa·s
  mass density: 1057.13 ± 2.2 kg/m3
303.15 K, x1 = 0.606
  viscosity: 343.91 ± 53 mPa·s
  mass density: 1050.34 ± 2.2 kg/m3
303.15 K, x1 = 0.773
  viscosity: 806.64 ± 130 mPa·s
  mass density: 1043.22 ± 2.2 kg/m3
303.15 K, x1 = 0.878
  viscosity: 2111.1 ± 350 mPa·s
  mass density: 1039.66 ± 2.2 kg/m3
303.15 K, x1 = 1
  viscosity: 5718.5 ± 960 mPa·s
  mass density: 1036.07 ± 2.2 kg/m3
308.15 K, x1 = 0.141
  viscosity: 5.691 ± 0.89 mPa·s
  mass density: 1074.26 ± 2.2 kg/m3
308.15 K, x1 = 0.278
  viscosity: 18.67 ± 2.9 mPa·s
  mass density: 1064.88 ± 2.2 kg/m3
308.15 K, x1 = 0.366
  viscosity: 41.74 ± 6.5 mPa·s
  mass density: 1059.5 ± 2.2 kg/m3
308.15 K, x1 = 0.472
  viscosity: 100.12 ± 15 mPa·s
  mass density: 1053.74 ± 2.2 kg/m3
308.15 K, x1 = 0.606
  viscosity: 242.91 ± 37 mPa·s
  mass density: 1047.15 ± 2.2 kg/m3
308.15 K, x1 = 0.773
  viscosity: 554.65 ± 87 mPa·s
  mass density: 1040.19 ± 2.2 kg/m3
308.15 K, x1 = 0.878
  viscosity: 1348.9 ± 220 mPa·s
  mass density: 1036.71 ± 2.2 kg/m3
308.15 K, x1 = 1
  viscosity: 3430.8 ± 560 mPa·s
  mass density: 1033.22 ± 2.2 kg/m3
313.15 K, x1 = 0.141
  viscosity: 4.951 ± 0.77 mPa·s
  mass density: 1070.08 ± 2.2 kg/m3
313.15 K, x1 = 0.278
  viscosity: 15.46 ± 2.4 mPa·s
  mass density: 1061.15 ± 2.2 kg/m3
313.15 K, x1 = 0.366
  viscosity: 33.33 ± 5.2 mPa·s
  mass density: 1055.94 ± 2.2 kg/m3
313.15 K, x1 = 0.472
  viscosity: 76.29 ± 12 mPa·s
  mass density: 1050.36 ± 2.2 kg/m3
313.15 K, x1 = 0.606
  viscosity: 176.38 ± 27 mPa·s
  mass density: 1043.96 ± 2.2 kg/m3
313.15 K, x1 = 0.773
  viscosity: 384.99 ± 60 mPa·s
  mass density: 1037.17 ± 2.2 kg/m3
313.15 K, x1 = 0.878
  viscosity: 895.04 ± 140 mPa·s
  mass density: 1033.77 ± 2.2 kg/m3
313.15 K, x1 = 1
  viscosity: 2146.1 ± 350 mPa·s
  mass density: 1030.38 ± 2.2 kg/m3
318.15 K, x1 = 0.141
  viscosity: 4.385 ± 0.68 mPa·s
  mass density: 1065.87 ± 2.2 kg/m3
318.15 K, x1 = 0.278
  viscosity: 12.95 ± 2 mPa·s
  mass density: 1057.41 ± 2.2 kg/m3
318.15 K, x1 = 0.366
  viscosity: 26.72 ± 4.1 mPa·s
  mass density: 1052.4 ± 2.2 kg/m3
318.15 K, x1 = 0.472
  viscosity: 58.57 ± 9 mPa·s
  mass density: 1046.99 ± 2.2 kg/m3
318.15 K, x1 = 0.606
  viscosity: 130.64 ± 20 mPa·s
  mass density: 1040.76 ± 2.2 kg/m3
318.15 K, x1 = 0.773
  viscosity: 274.48 ± 42 mPa·s
  mass density: 1034.12 ± 2.2 kg/m3
318.15 K, x1 = 0.878
  viscosity: 607.51 ± 96 mPa·s
  mass density: 1030.8 ± 2.2 kg/m3
318.15 K, x1 = 1
  viscosity: 1390.4 ± 220 mPa·s
  mass density: 1027.56 ± 2.2 kg/m3
323.15 K, x1 = 0.141
  viscosity: 3.892 ± 0.6 mPa·s
  mass density: 1061.67 ± 2.2 kg/m3
323.15 K, x1 = 0.278
  viscosity: 10.99 ± 1.7 mPa·s
  mass density: 1053.68 ± 2.1 kg/m3
323.15 K, x1 = 0.366
  viscosity: 21.9 ± 3.4 mPa·s
  mass density: 1048.87 ± 2.1 kg/m3
323.15 K, x1 = 0.472
  viscosity: 46.32 ± 7.1 mPa·s
  mass density: 1043.65 ± 2.1 kg/m3
323.15 K, x1 = 0.606
  viscosity: 98.7 ± 15 mPa·s
  mass density: 1037.58 ± 2.1 kg/m3
323.15 K, x1 = 0.773
  viscosity: 201.06 ± 31 mPa·s
  mass density: 1031.12 ± 2.2 kg/m3
323.15 K, x1 = 0.878
  viscosity: 425.84 ± 67 mPa·s
  mass density: 1027.89 ± 2.2 kg/m3
323.15 K, x1 = 1
  viscosity: 928.1 ± 150 mPa·s
  mass density: 1024.75 ± 2.2 kg/m3
328.15 K, x1 = 0.141
  viscosity: 3.493 ± 0.54 mPa·s
  mass density: 1057.48 ± 2.1 kg/m3
328.15 K, x1 = 0.278
  viscosity: 9.439 ± 1.4 mPa·s
  mass density: 1049.95 ± 2.1 kg/m3
328.15 K, x1 = 0.366
  viscosity: 18.22 ± 2.8 mPa·s
  mass density: 1045.35 ± 2.1 kg/m3
328.15 K, x1 = 0.472
  viscosity: 37.12 ± 5.7 mPa·s
  mass density: 1040.31 ± 2.1 kg/m3
328.15 K, x1 = 0.606
  viscosity: 76.27 ± 12 mPa·s
  mass density: 1034.41 ± 2.1 kg/m3
328.15 K, x1 = 0.773
  viscosity: 150.51 ± 23 mPa·s
  mass density: 1028.15 ± 2.2 kg/m3
328.15 K, x1 = 0.878
  viscosity: 306.13 ± 48 mPa·s
  mass density: 1025.02 ± 2.2 kg/m3
328.15 K, x1 = 1
  viscosity: 638.79 ± 99 mPa·s
  mass density: 1021.92 ± 2.2 kg/m3
333.15 K, x1 = 0.141
  viscosity: 3.154 ± 0.48 mPa·s
  mass density: 1053.31 ± 2.1 kg/m3
333.15 K, x1 = 0.278
  viscosity: 8.18 ± 1.2 mPa·s
  mass density: 1046.23 ± 2.1 kg/m3
333.15 K, x1 = 0.366
  viscosity: 15.34 ± 2.4 mPa·s
  mass density: 1041.84 ± 2.1 kg/m3
333.15 K, x1 = 0.472
  viscosity: 30.3 ± 4.6 mPa·s
  mass density: 1036.99 ± 2.1 kg/m3
333.15 K, x1 = 0.606
  viscosity: 60.05 ± 9.1 mPa·s
  mass density: 1031.26 ± 2.1 kg/m3
333.15 K, x1 = 0.773
  viscosity: 114.9 ± 17 mPa·s
  mass density: 1025.19 ± 2.1 kg/m3
333.15 K, x1 = 0.878
  viscosity: 227.29 ± 35 mPa·s
  mass density: 1022.16 ± 2.2 kg/m3
333.15 K, x1 = 1
  viscosity: 453.59 ± 70 mPa·s
  mass density: 1019.13 ± 2.2 kg/m3
338.15 K, x1 = 0.141
  viscosity: 2.85 ± 0.44 mPa·s
  mass density: 1049.14 ± 2.1 kg/m3
338.15 K, x1 = 0.278
  viscosity: 7.175 ± 1.1 mPa·s
  mass density: 1042.51 ± 2.1 kg/m3
338.15 K, x1 = 0.366
  viscosity: 13.14 ± 2 mPa·s
  mass density: 1038.35 ± 2.1 kg/m3
338.15 K, x1 = 0.472
  viscosity: 25.52 ± 3.9 mPa·s
  mass density: 1033.67 ± 2.1 kg/m3
338.15 K, x1 = 0.606
  viscosity: 48.07 ± 7.3 mPa·s
  mass density: 1028.12 ± 2.1 kg/m3
338.15 K, x1 = 0.773
  viscosity: 89.02 ± 14 mPa·s
  mass density: 1022.24 ± 2.1 kg/m3
338.15 K, x1 = 0.878
  viscosity: 169.96 ± 26 mPa·s
  mass density: 1019.29 ± 2.2 kg/m3
338.15 K, x1 = 1
  viscosity: 327.52 ± 50 mPa·s
  mass density: 1016.38 ± 2.2 kg/m3
343.15 K, x1 = 0.141
  viscosity: 2.594 ± 0.4 mPa·s
  mass density: 1045.01 ± 2.1 kg/m3
343.15 K, x1 = 0.278
  viscosity: 6.291 ± 0.96 mPa·s
  mass density: 1038.81 ± 2.1 kg/m3
343.15 K, x1 = 0.366
  viscosity: 11.28 ± 1.7 mPa·s
  mass density: 1034.87 ± 2.1 kg/m3
343.15 K, x1 = 0.472
  viscosity: 20.88 ± 3.2 mPa·s
  mass density: 1030.39 ± 2.1 kg/m3
343.15 K, x1 = 0.606
  viscosity: 39.06 ± 5.9 mPa·s
  mass density: 1025 ± 2.1 kg/m3
343.15 K, x1 = 0.773
  viscosity: 70.28 ± 11 mPa·s
  mass density: 1019.29 ± 2.1 kg/m3
343.15 K, x1 = 0.878
  viscosity: 129.41 ± 20 mPa·s
  mass density: 1016.44 ± 2.1 kg/m3
343.15 K, x1 = 1
  viscosity: 243.04 ± 37 mPa·s
  mass density: 1013.65 ± 2.2 kg/m3
348.15 K, x1 = 0.141
  viscosity: 2.378 ± 0.36 mPa·s
  mass density: 1040.88 ± 2.1 kg/m3
348.15 K, x1 = 0.278
  viscosity: 5.597 ± 0.85 mPa·s
  mass density: 1035.11 ± 2.1 kg/m3
348.15 K, x1 = 0.366
  viscosity: 9.738 ± 1.5 mPa·s
  mass density: 1031.39 ± 2.1 kg/m3
348.15 K, x1 = 0.472
  viscosity: 17.65 ± 2.7 mPa·s
  mass density: 1027.11 ± 2.1 kg/m3
348.15 K, x1 = 0.606
  viscosity: 32.05 ± 4.8 mPa·s
  mass density: 1021.88 ± 2.1 kg/m3
348.15 K, x1 = 0.773
  viscosity: 56.52 ± 8.5 mPa·s
  mass density: 1016.35 ± 2.1 kg/m3
348.15 K, x1 = 0.878
  viscosity: 100.3 ± 15 mPa·s
  mass density: 1013.59 ± 2.1 kg/m3
348.15 K, x1 = 1
  viscosity: 183.45 ± 28 mPa·s
  mass density: 1010.91 ± 2.2 kg/m3
353.15 K, x1 = 0.141
  viscosity: 2.184 ± 0.33 mPa·s
  mass density: 1036.68 ± 2.1 kg/m3
353.15 K, x1 = 0.278
  viscosity: 4.998 ± 0.76 mPa·s
  mass density: 1031.43 ± 2.1 kg/m3
353.15 K, x1 = 0.366
  viscosity: 8.538 ± 1.3 mPa·s
  mass density: 1027.93 ± 2.1 kg/m3
353.15 K, x1 = 0.472
  viscosity: 15.07 ± 2.3 mPa·s
  mass density: 1023.84 ± 2.1 kg/m3
353.15 K, x1 = 0.606
  viscosity: 26.7 ± 4 mPa·s
  mass density: 1018.78 ± 2.1 kg/m3
353.15 K, x1 = 0.773
  viscosity: 45.71 ± 6.9 mPa·s
  mass density: 1013.43 ± 2.1 kg/m3
353.15 K, x1 = 0.878
  viscosity: 81.75 ± 12 mPa·s
  mass density: 1010.75 ± 2.1 kg/m3
353.15 K, x1 = 1
  viscosity: 140.06 ± 21 mPa·s
  mass density: 1008.18 ± 2.2 kg/m3

From the NIST ThermoML archive (doi:10.1016/j.jct.2017.07.016)
